Results as given in patent US6642012B1, “Spectroscopic determination of characteristic of biological material” (priority 1996, dated 2003).

System: Peripheral blood mononuclear cells (PBMC)
Experiment: FTIR monitoring of lymphocyte activation
Type: cell-based, human
Protocol: Peripheral blood mononuclear cells (PBMC) from two volunteers, isolated using gradient mixtures were twice washed in 0.9% saline and centrifuged. The resulting pellets were resuspended in 1 ml of saline. One half of each sample was activated with phorbol myristate acetate (PMA) and the other half used as a control. After 15 minutes the four portions were desiccated and transferred to a infrared cell for FTIR microanalysis. For each portion six spectra were recorded.

[1] = PMA activated vs non-activated lymphocytes, 15 minutes

SMILES: CCCCCCCCCCCCCC(=O)O[C@@H]1[C@@H](C)[C@@]2(O)[C@@H](C=C(CO)C[C@]3(O)C(=O)C(C)=C[C@@H]23)[C@@H]2C(C)(C)[C@]12OC(C)=O [PMA, phorbol myristate acetate]
- FTIR spectra of activated vs non-activated lymphocytes (PBMC from two volunteers, PMA activation 15 minutes, desiccated, FTIR microanalysis): marked differences
- amide II band (PMA activated lymphocytes, 15 minutes): multitude of shoulder peaks
- C—O stretch of fatty acyl groups (1400 cm-1) and C—O stretches of glycogen bands at 1058 and 1038 cm-1 [1]: much more intense
- amide I β-pleated sheet component band at 1634 cm-1 [1]: increase
- α-helical amide I band [1]: reduction
